From ChEMBL document CHEMBL1155542, “Mapping the ATP-binding domain of DNA-dependent protein kinase (DNA-PK) with coumarin- and isocoumarin-derived inhibitors” (Bioorg Med Chem Lett, 2010)

Biological target: DNA-dependent protein kinase catalytic subunit (Homo sapiens, UniProt P78527)
Experiment: Inhibition of DNA-dependent protein kinase

Chain of DNA-dependent protein kinase catalytic subunit (P78527 whole entry): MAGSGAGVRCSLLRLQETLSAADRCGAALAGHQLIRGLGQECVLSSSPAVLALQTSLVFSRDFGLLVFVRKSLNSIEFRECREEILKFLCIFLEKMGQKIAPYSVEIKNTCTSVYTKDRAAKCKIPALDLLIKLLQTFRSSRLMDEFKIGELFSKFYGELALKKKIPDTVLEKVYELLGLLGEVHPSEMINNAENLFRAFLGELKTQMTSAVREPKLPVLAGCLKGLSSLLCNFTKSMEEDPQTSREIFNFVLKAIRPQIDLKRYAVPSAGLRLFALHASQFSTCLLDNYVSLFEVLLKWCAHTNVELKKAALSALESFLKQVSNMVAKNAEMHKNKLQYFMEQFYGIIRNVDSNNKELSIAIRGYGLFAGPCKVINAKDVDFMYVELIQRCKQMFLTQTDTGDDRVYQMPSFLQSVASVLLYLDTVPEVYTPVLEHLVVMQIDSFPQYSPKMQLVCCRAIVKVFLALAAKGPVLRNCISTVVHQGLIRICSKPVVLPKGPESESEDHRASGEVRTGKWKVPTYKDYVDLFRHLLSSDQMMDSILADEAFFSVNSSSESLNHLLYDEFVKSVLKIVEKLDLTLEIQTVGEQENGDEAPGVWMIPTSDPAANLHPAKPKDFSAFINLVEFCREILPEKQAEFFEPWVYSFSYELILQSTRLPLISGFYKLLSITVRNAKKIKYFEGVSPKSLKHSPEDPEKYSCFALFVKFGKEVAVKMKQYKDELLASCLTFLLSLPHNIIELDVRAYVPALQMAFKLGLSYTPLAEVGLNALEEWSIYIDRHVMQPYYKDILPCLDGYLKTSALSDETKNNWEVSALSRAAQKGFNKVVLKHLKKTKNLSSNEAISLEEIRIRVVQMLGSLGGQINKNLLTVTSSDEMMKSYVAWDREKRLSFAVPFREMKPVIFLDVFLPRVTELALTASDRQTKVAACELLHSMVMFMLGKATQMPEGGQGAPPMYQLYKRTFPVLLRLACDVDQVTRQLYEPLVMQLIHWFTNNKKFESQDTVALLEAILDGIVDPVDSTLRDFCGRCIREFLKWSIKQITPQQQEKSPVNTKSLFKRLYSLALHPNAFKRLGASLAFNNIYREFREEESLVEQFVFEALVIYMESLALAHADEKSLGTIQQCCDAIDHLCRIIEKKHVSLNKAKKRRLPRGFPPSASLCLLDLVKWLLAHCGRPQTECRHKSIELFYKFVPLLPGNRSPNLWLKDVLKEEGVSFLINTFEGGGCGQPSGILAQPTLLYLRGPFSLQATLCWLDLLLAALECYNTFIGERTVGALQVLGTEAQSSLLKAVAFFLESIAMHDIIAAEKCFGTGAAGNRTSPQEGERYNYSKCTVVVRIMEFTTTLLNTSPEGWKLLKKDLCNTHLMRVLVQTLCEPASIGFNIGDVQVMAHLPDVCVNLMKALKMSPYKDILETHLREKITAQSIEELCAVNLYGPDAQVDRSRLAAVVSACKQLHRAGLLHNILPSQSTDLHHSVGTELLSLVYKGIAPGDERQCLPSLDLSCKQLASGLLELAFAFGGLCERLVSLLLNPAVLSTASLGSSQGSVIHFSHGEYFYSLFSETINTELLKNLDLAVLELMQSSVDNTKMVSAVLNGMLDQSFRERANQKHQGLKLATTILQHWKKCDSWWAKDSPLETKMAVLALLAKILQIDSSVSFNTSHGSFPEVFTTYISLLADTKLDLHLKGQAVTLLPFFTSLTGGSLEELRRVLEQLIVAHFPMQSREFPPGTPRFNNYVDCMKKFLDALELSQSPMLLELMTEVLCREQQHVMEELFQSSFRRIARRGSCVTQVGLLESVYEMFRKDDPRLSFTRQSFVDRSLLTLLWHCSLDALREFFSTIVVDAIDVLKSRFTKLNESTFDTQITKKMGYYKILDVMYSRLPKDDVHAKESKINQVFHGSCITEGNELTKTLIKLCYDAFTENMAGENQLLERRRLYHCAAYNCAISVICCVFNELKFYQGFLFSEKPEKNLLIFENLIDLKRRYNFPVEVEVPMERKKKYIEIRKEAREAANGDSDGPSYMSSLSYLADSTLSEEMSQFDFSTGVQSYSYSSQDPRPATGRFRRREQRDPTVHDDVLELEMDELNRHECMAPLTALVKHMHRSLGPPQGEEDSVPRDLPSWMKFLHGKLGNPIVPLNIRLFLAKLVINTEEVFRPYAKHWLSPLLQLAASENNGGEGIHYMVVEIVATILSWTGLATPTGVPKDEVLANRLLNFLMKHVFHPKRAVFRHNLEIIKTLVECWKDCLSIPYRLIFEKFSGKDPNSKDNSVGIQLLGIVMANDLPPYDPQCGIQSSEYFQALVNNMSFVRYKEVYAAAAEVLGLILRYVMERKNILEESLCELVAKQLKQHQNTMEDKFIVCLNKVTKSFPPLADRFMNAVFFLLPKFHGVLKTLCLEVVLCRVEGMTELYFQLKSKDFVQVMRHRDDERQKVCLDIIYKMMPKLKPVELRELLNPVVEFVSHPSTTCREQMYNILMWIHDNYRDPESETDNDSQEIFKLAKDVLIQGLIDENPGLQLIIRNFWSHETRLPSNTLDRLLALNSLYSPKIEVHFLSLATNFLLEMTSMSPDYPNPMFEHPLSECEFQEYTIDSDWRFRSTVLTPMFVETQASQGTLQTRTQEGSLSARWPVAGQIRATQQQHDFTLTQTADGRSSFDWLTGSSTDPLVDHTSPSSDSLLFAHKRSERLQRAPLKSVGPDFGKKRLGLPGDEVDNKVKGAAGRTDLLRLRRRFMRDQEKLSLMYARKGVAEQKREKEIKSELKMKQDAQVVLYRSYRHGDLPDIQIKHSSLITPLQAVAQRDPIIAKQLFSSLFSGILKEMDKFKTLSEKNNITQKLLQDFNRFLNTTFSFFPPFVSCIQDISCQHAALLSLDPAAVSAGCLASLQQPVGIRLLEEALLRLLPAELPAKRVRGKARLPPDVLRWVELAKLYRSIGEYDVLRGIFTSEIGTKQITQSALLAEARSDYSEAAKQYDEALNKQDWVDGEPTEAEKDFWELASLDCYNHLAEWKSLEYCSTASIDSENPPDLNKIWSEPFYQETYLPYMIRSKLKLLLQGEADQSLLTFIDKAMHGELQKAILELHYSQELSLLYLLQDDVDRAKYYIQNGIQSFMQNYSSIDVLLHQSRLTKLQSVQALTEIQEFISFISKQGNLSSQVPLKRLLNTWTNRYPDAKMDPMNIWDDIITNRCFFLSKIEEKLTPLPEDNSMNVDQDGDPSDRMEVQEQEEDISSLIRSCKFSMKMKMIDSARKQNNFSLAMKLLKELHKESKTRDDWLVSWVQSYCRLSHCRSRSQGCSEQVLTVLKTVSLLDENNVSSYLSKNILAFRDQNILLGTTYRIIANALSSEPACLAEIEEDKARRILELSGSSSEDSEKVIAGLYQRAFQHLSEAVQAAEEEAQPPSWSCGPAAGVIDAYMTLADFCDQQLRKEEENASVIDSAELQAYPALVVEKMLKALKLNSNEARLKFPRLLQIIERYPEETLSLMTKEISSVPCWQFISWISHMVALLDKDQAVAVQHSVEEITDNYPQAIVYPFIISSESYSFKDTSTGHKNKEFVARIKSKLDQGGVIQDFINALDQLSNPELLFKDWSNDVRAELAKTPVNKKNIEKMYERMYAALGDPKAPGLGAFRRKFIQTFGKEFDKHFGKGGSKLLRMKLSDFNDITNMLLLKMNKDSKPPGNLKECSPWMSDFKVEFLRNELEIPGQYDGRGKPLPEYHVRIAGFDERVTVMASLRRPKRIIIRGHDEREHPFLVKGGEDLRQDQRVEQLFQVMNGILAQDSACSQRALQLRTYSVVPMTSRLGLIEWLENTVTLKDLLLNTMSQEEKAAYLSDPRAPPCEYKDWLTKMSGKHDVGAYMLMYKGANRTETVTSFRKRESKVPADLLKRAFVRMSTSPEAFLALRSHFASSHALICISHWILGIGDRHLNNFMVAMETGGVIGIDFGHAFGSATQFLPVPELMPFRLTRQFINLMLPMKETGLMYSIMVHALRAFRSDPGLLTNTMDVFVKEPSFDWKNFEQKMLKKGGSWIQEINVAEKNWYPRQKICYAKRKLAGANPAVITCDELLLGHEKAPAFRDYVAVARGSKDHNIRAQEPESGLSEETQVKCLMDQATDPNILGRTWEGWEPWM

SMILES | IC50 [nM]
O=c1oc(N2CCOCC2)cc2c(-c3cccc4c3sc3ccccc34)cccc12 | 340
O=c1cc(N2CCOCC2)c2ccc(-c3cccs3)cc2o1 | 600
O=c1cc(N2CCOCC2)c2cc(-c3ccccc3)ccc2o1 | 1800
COc1cccc2c(=O)oc(N3CCOCC3)cc12 | 3200
CCN1CCN(CC(=O)Nc2ccc(-c3cccc4c(=O)cc(N5CCOCC5)oc34)c3sc4ccccc4c23)CC1 | 5
O=c1cc(N2CCOCC2)c2ccc(-c3cc4ccccc4s3)cc2o1 | > 10000
O=c1cc(N2CCOCC2)c2ccc(-c3cccc4c3oc3ccccc34)cc2o1 | 2100
O=c1oc(N2CCOCC2)cc2c(-c3ccccc3)cccc12 | 2600
COc1ccc2oc(=O)cc(N3CCOCC3)c2c1 | 1700
O=c1cc(N2CCOCC2)oc2c(-c3cccc4c3sc3ccccc34)cccc12 | 30
O=c1cc(N2CCOCC2)c2cc(-c3cccs3)ccc2o1 | 1200
O=c1cc(N2CCOCC2)c2ccc(-c3cccc(-c4ccccc4)c3)cc2o1 | > 10000
O=c1cc(N2CCOCC2)c2cc(-c3cccc4c3sc3ccccc34)ccc2o1 | > 10000
COc1cccc2c(=O)cc(N3CCOCC3)oc12 | 1800
O=c1cc(N2CCOCC2)c2ccc(-c3cccc4c3sc3ccccc34)cc2o1 | 2100
O=c1oc(N2CCOCC2)cc2c(-c3cccc(-c4ccccc4)c3)cccc12 | 680
O=c1cc(N2CCOCC2)c2cc(-c3cc4ccccc4s3)ccc2o1 | > 10000
O=c1cc(N2CCOCC2)c2cc(-c3cccc(-c4ccccc4)c3)ccc2o1 | 1600
O=c1cc(N2CCOCC2)oc2ccccc12 | > 10000
O=c1oc(N2CCOCC2)cc2ccccc12 | > 10000
O=c1oc(N2CCOCC2)cc2c(-c3cccc4c3oc3ccccc34)cccc12 | 330
O=c1cc(N2CCOCC2)c2ccc(-c3ccccc3)cc2o1 | 1700
O=c1cc(N2CCOCC2)c2cc(-c3cccc4c3oc3ccccc34)ccc2o1 | > 10000
COc1ccc2c(N3CCOCC3)cc(=O)oc2c1 | 5400
